{"source": "the supplement of paper PMC10307832", "experiment_in_all_cases": "relative viability (nuclei count vs DMSO), 5 days (fraction); higher = more cells survive", "key": {"Shikonin + Trametinib": {"compound": "CC(C)=CC[C@@H](O)C1=CC(=O)c2c(O)ccc(O)c2C1=O [Shikonin] + CC(=O)Nc1cccc(-n2c(=O)n(C3CC3)c(=O)c3c(Nc4ccc(I)cc4F)n(C)c(=O)c(C)c32)c1 [Trametinib] (partner 0.02 µM)", "summary_of_the_method": "(§1)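 Nuclei were stained with Hoechst during a one-step fixation (final 0.05% Triton X-100, 1% formaldehyde, 1 ug/ml Hoechst) carried out 5 days after dosing, then counted on 4× images. The cells, lung cancer lines in 1536-well plates, had been dosed by pin tool the day after seeding with one drug alone or a fixed anchor-drug dose plus five library-drug doses (not always all listed) in √10 steps. Relative viability is the nuclei count in treated wells divided by that in vehicle wells, and each value is the median of duplicate plates.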"}, "Shikonin + Dasatinib": {"compound": "CC(C)=CC[C@@H](O)C1=CC(=O)c2c(O)ccc(O)c2C1=O [Shikonin] + Cc1nc(Nc2ncc(C(=O)Nc3c(C)cccc3Cl)s2)cc(N2CCN(CCO)CC2)n1 [Dasatinib] (partner 0.075 µM)", "summary_of_the_method": "as §1"}, "[1]": {"compound": "CC(C)N(CCCNC(=O)Nc1ccc(C(C)(C)C)cc1)C[C@H]1O[C@@H](n2ccc3c(N)ncnc32)[C@H](O)[C@@H]1O + COc1cccc2cc(-c3nc([C@H]4CC[C@H](C(=O)O)CC4)n4ncnc(N)c34)[nH]c12 [OSI-027] (partner 0.5 µM)", "summary_of_the_method": "as §1"}, "[2]": {"compound": "CC(C)N(CCCNC(=O)Nc1ccc(C(C)(C)C)cc1)C[C@H]1O[C@@H](n2ccc3c(N)ncnc32)[C@H](O)[C@@H]1O + CS(=O)(=O)N1CCN(Cc2cc3nc(-c4cccc5[nH]ncc45)nc(N4CCOCC4)c3s2)CC1 [Pictilisib] (partner 1 µM)", "summary_of_the_method": "as §1"}}, "data": [{"cell line": "UMC-11", "values": [{"measurement": "relative viability", "setting": "Shikonin + Trametinib; first compound 0.01 µM", "result": 0.573}, {"measurement": "relative viability", "setting": "Shikonin + Trametinib; first compound 0.1 µM", "result": 0.802}, {"measurement": "relative viability", "setting": "Shikonin + Trametinib; first compound 0.3162 µM", "result": 0.656}, {"measurement": "relative viability", "setting": "Shikonin + Trametinib; first compound 1 µM", "result": 0.793}, {"measurement": "relative viability", "setting": "Shikonin + Dasatinib; first compound 0.01 µM", "result": 0.476}, {"measurement": "relative viability", "setting": "Shikonin + Dasatinib; first compound 0.1 µM", "result": 0.49}, {"measurement": "relative viability", "setting": "Shikonin + Dasatinib; first compound 0.3162 µM", "result": 0.459}, {"measurement": "relative viability", "setting": "Shikonin + Dasatinib; first compound 1 µM", "result": 0.503}, {"measurement": "relative viability", "setting": "[1]; first compound 0.08 µM", "result": 0.458}, {"measurement": "relative viability", "setting": "[1]; first compound 0.253 µM", "result": 0.465}, {"measurement": "relative viability", "setting": "[1]; first compound 0.8 µM", "result": 0.453}, {"measurement": "relative viability", "setting": "[1]; first compound 2.53 µM", "result": 0.522}, {"measurement": "relative viability", "setting": "[1]; first compound 8 µM", "result": 0.532}, {"measurement": "relative viability", "setting": "[2]; first compound 0.08 µM", "result": 0.683}, {"measurement": "relative viability", "setting": "[2]; first compound 0.253 µM", "result": 0.662}, {"measurement": "relative viability", "setting": "[2]; first compound 0.8 µM", "result": 0.783}, {"measurement": "relative viability", "setting": "[2]; first compound 2.53 µM", "result": 0.805}, {"measurement": "relative viability", "setting": "[2]; first compound 8 µM", "result": 0.745}]}]}
